# Earlier results as cited in US20100262098A1, “ABSORBENT ARTICLE WITH ODOUR CONTROL SUBSTANCE” (SCA Hygiene Products AB, priority 2007, published 2010).
# Settings: autoxidation at 100° C.; not treated with antioxidants
row,Structure (SMILES),Relative rate of oxidation
1,CCCCC/C=C\C/C=C\CCCCCCCC(=O)O [Linoleic acid],64
2,CCCCCCCC/C=C\CCCCCCCC(=O)O [Oleic acid],6
3,CCCCCCCCCCCCCCCCCC(=O)O [Stearic acid],0.6
